# Measured values as given in patent publication US10316028B2, “Orexin receptor antagonists” (Heptares Therapeutics Limited, priority 2012, dated 2019).
# Target: T1, human Orexin-2 receptor (Homo sapiens, UniProt O43614)
# T1 construct: expressed in transfected cells; host or cells: HEK293 cells (transient transfection, Genejuice); membranes
# T1 sequence (O43614 1-444): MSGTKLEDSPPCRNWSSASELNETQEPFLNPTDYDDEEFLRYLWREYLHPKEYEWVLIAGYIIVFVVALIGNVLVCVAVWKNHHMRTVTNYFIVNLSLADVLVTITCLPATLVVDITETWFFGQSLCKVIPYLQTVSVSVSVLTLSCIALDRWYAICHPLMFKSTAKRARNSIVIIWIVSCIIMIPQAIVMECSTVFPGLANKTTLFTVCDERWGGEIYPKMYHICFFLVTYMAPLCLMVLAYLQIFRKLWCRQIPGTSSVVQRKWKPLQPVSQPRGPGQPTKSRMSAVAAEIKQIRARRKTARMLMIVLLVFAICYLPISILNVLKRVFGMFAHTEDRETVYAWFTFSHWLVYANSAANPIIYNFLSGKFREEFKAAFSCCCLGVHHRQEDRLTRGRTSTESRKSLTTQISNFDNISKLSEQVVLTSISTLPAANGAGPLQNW
# Assay: 3H-EMPA radioligand binding assay
# Details: 3H-EMPA displacement, membranes of HEK293 cells transfected with human Orexin-2 receptor; KI by Cheng-Prussoff; read-out: OX2 pKi ave (converted)
# In short: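 Membranes from HEK293 cells transiently transfected with human orexin-2 receptor cDNA, assayed with [3H]EMPA. Bound ligand collected on PEI-treated GF/B filters and counted by scintillation; IC50 from inhibition curves, Ki by Cheng-Prusoff.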
row,SMILES,Ki
1,"COc1ccc(N2C(=O)N(Cc3ccc(Cl)cc3F)c3ccncc3S2(=O)=O)cc1OC [Example 92, 4-(4-Chloro-2-fluorobenzyl)-2-(3,4-dimethoxyphenyl)-2H-pyrido[4,3-e][1,2,4]thiadiazin-3(4H)-one 1,1-dioxide]",741 nM
2,"COc1ccc(N2C(=O)N(Cc3c(F)cccc3Cl)c3ncccc3S2(=O)=O)cc1OC [Example 94, 4-(2-Chloro-6-fluorobenzyl)-2-(3,4-dimethoxyphenyl)-2H-pyrido[2,3-e][1,2,4]thiadiazin-3(4H)-one 1,1-dioxide]",0.776 nM
3,"COc1cc(F)c(CN2C(=O)N(c3ccc(OC)c(OC)c3)S(=O)(=O)c3cccnc32)c(F)c1 [Example 95, 4-(2,6-Difluoro-4-methoxybenzyl)-2-(3,4-dimethoxyphenyl)-2H-pyrido[2,3-e][1,2,4]thiadiazin-3(4H)-one 1,1-dioxide]",0.129 nM
4,"COc1ccc(N2C(=O)N(Cc3ncc(F)cc3F)c3ncccc3S2(=O)=O)cc1OC [Example 96, 4-[(3,5-Difluoropyridin-2-yl)methyl]-2-(3,4-dimethoxyphenyl)-2H-pyrido[2,3-e][1,2,4]thiadiazin-3(4H)-one 1,1-dioxide]",13.2 nM
5,"COc1ccc(N2C(=O)N(Cc3c(F)cc(Cl)cc3F)c3ncccc3S2(=O)=O)cc1OC [Example 97, 4-(4-Chloro-2,6-difluorobenzyl)-2-(3,4-dimethoxyphenyl)-2H-pyrido[2,3-e][1,2,4]thiadiazin-3(4H)-one 1,1-dioxide]",0.661 nM
6,"COc1cc(F)c(CN2C(=O)N(c3ccc(OC)c(OC)c3)S(=O)(=O)c3ccccc32)c(Cl)c1 [Example 113, 4-(2-Chloro-6-fluoro-4-methoxybenzyl)-2-(3,4-dimethoxyphenyl)-2H-1,2,4-benzothiadiazin-3(4H)-one 1,1-dioxide]",0.0912 nM
7,"O=C1N(Cc2c(F)cccc2Cl)c2ccccc2S(=O)(=O)N1CC1CCOCC1 [Example 117, 4-(2-Chloro-6-fluorobenzyl)-2-(tetrahydro-2H-pyran-4-ylmethyl)-2H-1,2,4-benzothiadiazin-3(4H)-one 1,1-dioxide]",372 nM
8,"CC1(CN2C(=O)N(Cc3c(F)cccc3Cl)c3ccccc3S2(=O)=O)COC1 [Example 118, 4-(2-Chloro-6-fluorobenzyl)-2-[(3-methyloxetan-3-yl)methyl]-2H-1,2,4-benzothiadiazin-3(4H)-one 1,1-dioxide]",372 nM
9,"Cc1nc(CN2C(=O)N(Cc3c(F)cccc3F)c3ccccc3S2(=O)=O)cs1 [Example 119, 4-(2,6-Difluorobenzyl)-2-[(2-methyl-1,3-thiazol-4-yl)methyl]-2H-1,2,4-benzothiadiazin-3(4H)-one 1,1-dioxide]",66.1 nM
10,"Cc1noc(C)c1CCN1C(=O)N(Cc2c(F)cccc2F)c2ccccc2S1(=O)=O [Example 120, 4-(2,6-Difluorobenzyl)-2-[2-(3,5-dimethyl-1,2-oxazol-4-yl)ethyl]-2H-1,2,4-benzothiadiazin-3(4H)-one 1,1-dioxide]",178 nM
11,"COc1ccnc(CN2C(=O)N(Cc3c(F)cccc3F)c3ccccc3S2(=O)=O)c1OC [Example 121, 4-(2,6-Difluorobenzyl)-2-[(3,4-dimethoxypyridin-2-yl)methyl]-2H-1,2,4-benzothiadiazin-3(4H)-one 1,1-dioxide]",87.1 nM
12,"COc1ccc(N2C(=O)N(Cc3c(F)cccc3Cl)c3ccccc3S2(=O)=O)cn1 [Example 122, 4-(2-Chloro-6-fluorobenzyl)-2-(6-methoxypyridin-3-yl)-2H-1,2,4-benzothiadiazin-3(4H)-one 1,1-dioxide]",16.6 nM
13,"COc1ccc(N2C(=O)N(Cc3c(F)cccc3Cl)c3c(F)cccc3S2(=O)=O)cn1 [Example 123, 4-(2-Chloro-6-fluorobenzyl)-5-fluoro-2-(6-methoxypyridin-3-yl)-2H-1,2,4-benzothiadiazin-3(4H)-one 1,1-dioxide]",43.7 nM

# Continued, values first:
row,Ki,SMILES
1,1.2 nM,"COc1ccc(N2C(=O)N(Cc3c(F)cc(F)cc3F)c3ncccc3S2(=O)=O)cc1OC [Example 93, 2-(3,4-Dimethoxyphenyl)-4-(2,4,6-trifluorobenzyl)-2H-pyrido[2,3-e][1,2,4]thiadiazin-3(4H)-one 1,1-dioxide]"
2,1.48 nM,"COc1cc(N2C(=O)N(Cc3c(F)cc(F)cc3F)c3ncccc3S2(=O)=O)cc(OC)n1 [Example 98, 2-(2,6-Dimethoxypyridin-4-yl)-4-(2,4,6-trifluorobenzyl)-2H-pyrido[2,3-e][1,2,4]thiadiazin-3(4H)-one 1,1-dioxide]"
3,1.55 nM,"COc1ccc(N2C(=O)N(Cc3c(F)cc(F)cc3F)c3ncccc3S2(=O)=O)nc1OC [Example 99, 2-(5,6-Dimethoxypyridin-2-yl)-4-(2,4,6-trifluorobenzyl)-2H-pyrido[2,3-e][1,2,4]thiadiazin-3(4H)-one 1,1-dioxide]"
4,3.47 nM,"Cc1ccc(N2C(=O)N(Cc3c(F)cc(F)cc3F)c3ncccc3S2(=O)=O)cc1C [Example 101, 2-(3,4-Dimethylphenyl)-4-(2,4,6-trifluorobenzyl)-2H-pyrido[2,3-e][1,2,4]thiadiazin-3(4H)-one 1,1-dioxide]"
5,0.776 nM,"COc1cc(F)c(CN2C(=O)N(c3ccc(C)c(C)c3)S(=O)(=O)c3cccnc32)c(F)c1 [Example 102, 4-(2,6-Difluoro-4-methoxybenzyl)-2-(3,4-dimethylphenyl)-2H-pyrido[2,3-e][1,2,4]thiadiazin-3(4H)-one 1,1-dioxide]"
6,4.27 nM,"Cc1cc(C)cc(N2C(=O)N(Cc3c(F)cc(F)cc3F)c3ncccc3S2(=O)=O)c1 [Example 103, 2-(3,5-Dimethylphenyl)-4-(2,4,6-trifluorobenzyl)-2H-pyrido[2,3-e][1,2,4]thiadiazin-3(4H)-one 1,1-dioxide]"
7,7.08 nM,"COc1ccc(N2C(=O)N(Cc3c(F)cc(F)cc3OC)c3ccccc3S2(=O)=O)cc1OC [Example 104, 4-(2,4-Difluoro-6-methoxybenzyl)-2-(3,4-dimethoxyphenyl)-2H-1,2,4-benzothiadiazin-3(4H)-one 1,1-dioxide]"
8,1.95 nM,"COc1ccc(N2C(=O)N(Cc3c(F)cc(F)cc3F)c3ccccc3S2(=O)=O)cc1OC [Example 105, 2-(3,4-Dimethoxyphenyl)-4-(2,4,6-trifluorobenzyl)-2H-1,2,4-benzothiadiazin-3(4H)-one 1,1-dioxide]"
9,0.741 nM,"COc1ccc(N2C(=O)N(Cc3c(F)cc(C)cc3Cl)c3ccccc3S2(=O)=O)cc1OC [Example 106, 4-(2-Chloro-6-fluoro-4-methylbenzyl)-2-(3,4-dimethoxyphenyl)-2H-1,2,4-benzothiadiazin-3(4H)-one 1,1-dioxide]"
10,1.05 nM,"COc1ccc(N2C(=O)N(Cc3c(F)cc(F)cc3Cl)c3ccccc3S2(=O)=O)cc1OC [Example 107, 4-(2-Chloro-4,6-difluorobenzyl)-2-(3,4-dimethoxyphenyl)-2H-1,2,4-benzothiadiazin-3(4H)-one 1,1-dioxide]"
11,0.468 nM,"COc1cc(F)c(CN2C(=O)N(c3ccc(OC)c(OC)c3)S(=O)(=O)c3ccccc32)c(F)c1 [Example 108, 2-(3,4-Dimethoxyphenyl)-4-(2,6-difluoro-4-methoxybenzyl)-2H-1,2,4-benzothiadiazin-3(4H)-one 1,1-dioxide]"
12,3.24 nM,"COc1cc(F)c(CN2C(=O)N(c3cccc(SC)c3)S(=O)(=O)c3ccccc32)c(F)c1 [Example 109, 4-(2,6-Difluoro-4-methoxybenzyl)-2-[3-(methylsulfanyl)phenyl]-2H-1,2,4-benzothiadiazin-3(4H)-one 1,1-dioxide]"
13,2.69 nM,"CSc1cccc(N2C(=O)N(Cc3c(F)cc(F)cc3Cl)c3ccccc3S2(=O)=O)c1 [Example 110, 4-(2-Chloro-4,6-difluorobenzyl)-2-[3-(methylsulfanyl)phenyl]-2H-1,2,4-benzothiadiazin-3(4H)-one 1,1-dioxide]"
14,2.24 nM,"COc1cc(F)c(CN2C(=O)N(c3cccc(S(C)(=O)=O)c3)S(=O)(=O)c3ccccc32)c(F)c1 [Example 111, 4-(2,6-Difluoro-4-methoxybenzyl)-2-[3-(methylsulfonyl)phenyl]-2H-1,2,4-benzothiadiazin-3(4H)-one 1,1-dioxide]"
15,26.9 nM,"CS(=O)(=O)c1cccc(N2C(=O)N(Cc3c(F)cc(F)cc3F)c3ccccc3S2(=O)=O)c1 [Example 112, 2-[3-(Methylsulfonyl)phenyl]-4-(2,4,6-trifluorobenzyl)-2H-1,2,4-benzothiadiazin-3(4H)-one 1,1-dioxide]"
16,12.9 nM,"Cc1cc(N2C(=O)N(Cc3c(F)cc(F)cc3F)c3ccccc3S2(=O)=O)cc(C)c1O [Example 114, 2-(4-Hydroxy-3,5-dimethylphenyl)-4-(2,4,6-trifluorobenzyl)-2H-1,2,4-benzothiadiazin-3(4H)-one 1,1-dioxide]"
17,0.355 nM,"COc1c(C)cc(N2C(=O)N(Cc3c(F)cc(F)cc3F)c3ccccc3S2(=O)=O)cc1C [Example 115, 2-(4-methoxy-3,5-dimethylphenyl)-4-(2,4,6-trifluorobenzyl)-2H-1,2,4-benzothiadiazin-3(4H)-one 1,1-dioxide]"
18,1.15 nM,"COc1ccc(N2C(=O)N(Cc3c(F)cc(O)cc3F)c3ccccc3S2(=O)=O)cc1OC [Example 116, 4-(2,6-Difluoro-4-hydroxybenzyl)-2-(3,4-dimethoxyphenyl)-2H-1,2,4-benzothiadiazin-3(4H)-one 1,1-dioxide]"
